# Experimental data reported in patent US10758534B2 (Vertex Pharmaceuticals Incorporated, priority 2014, dated 2020).
# Target: T1, F508del (Homo sapiens, UniProt P13569, DEL508-508)
# T1 construct: expressed in transfected cells
# Experiment: Protocol 1: membrane potential optical assay (FLIPR III, voltage sensing dye), identification of potentiator compounds
# Assay type: cell-based
# Conditions: Table 3, compounds of Table 1
# Procedure, shortened: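 NIH3T3 F508del cells, 27° C × 24 hrs; compound/DMSO pretreat → redistribution dye load → single forskolin addition with Cl⁻ gradient (gluconate-substituted bath, HEPES pH 7.4). FLIPR III membrane-potential fluorescence read.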
# T1 sequence (P13569 with tags, fused parts or gaps DEL508-508): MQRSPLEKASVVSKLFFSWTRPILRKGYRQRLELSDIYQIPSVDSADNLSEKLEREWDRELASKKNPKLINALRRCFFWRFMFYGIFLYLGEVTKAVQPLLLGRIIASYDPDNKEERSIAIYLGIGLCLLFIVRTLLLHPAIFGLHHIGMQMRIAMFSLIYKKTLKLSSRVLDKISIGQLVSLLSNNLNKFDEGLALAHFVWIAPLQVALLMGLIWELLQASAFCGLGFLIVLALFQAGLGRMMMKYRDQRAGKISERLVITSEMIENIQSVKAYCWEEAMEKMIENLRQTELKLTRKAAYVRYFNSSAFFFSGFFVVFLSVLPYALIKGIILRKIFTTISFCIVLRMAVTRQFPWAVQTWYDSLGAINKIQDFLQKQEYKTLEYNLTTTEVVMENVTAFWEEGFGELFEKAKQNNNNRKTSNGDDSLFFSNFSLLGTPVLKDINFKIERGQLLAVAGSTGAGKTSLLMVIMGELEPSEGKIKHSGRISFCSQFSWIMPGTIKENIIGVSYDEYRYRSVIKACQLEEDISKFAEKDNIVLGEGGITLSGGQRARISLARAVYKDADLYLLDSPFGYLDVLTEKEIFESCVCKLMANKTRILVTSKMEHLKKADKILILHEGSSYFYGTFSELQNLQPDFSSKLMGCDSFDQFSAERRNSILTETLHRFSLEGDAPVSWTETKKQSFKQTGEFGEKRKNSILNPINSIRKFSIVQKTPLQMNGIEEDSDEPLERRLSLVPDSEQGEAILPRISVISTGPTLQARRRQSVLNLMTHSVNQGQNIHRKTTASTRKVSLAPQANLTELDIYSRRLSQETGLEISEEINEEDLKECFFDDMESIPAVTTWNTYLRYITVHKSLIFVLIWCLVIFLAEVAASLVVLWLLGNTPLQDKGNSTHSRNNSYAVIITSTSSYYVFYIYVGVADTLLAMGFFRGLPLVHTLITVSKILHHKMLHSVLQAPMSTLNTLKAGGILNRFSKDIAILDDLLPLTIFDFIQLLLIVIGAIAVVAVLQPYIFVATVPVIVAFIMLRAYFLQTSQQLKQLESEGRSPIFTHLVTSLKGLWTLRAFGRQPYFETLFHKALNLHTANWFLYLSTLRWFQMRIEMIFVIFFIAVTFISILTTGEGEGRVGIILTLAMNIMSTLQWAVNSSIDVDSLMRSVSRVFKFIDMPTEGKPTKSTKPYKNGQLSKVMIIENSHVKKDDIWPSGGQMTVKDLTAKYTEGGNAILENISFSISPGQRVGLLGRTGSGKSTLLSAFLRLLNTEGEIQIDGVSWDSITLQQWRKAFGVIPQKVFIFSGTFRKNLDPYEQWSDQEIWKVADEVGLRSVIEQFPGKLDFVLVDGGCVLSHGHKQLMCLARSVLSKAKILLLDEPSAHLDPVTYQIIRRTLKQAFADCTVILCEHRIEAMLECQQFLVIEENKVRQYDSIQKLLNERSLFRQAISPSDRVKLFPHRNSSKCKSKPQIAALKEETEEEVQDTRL
row,EC30,Structure (SMILES)
1,++ (“++” means between 3 uM and 10 uM),"COc1ccc(Oc2cccc(S(=O)(=O)NC(=O)c3cccnc3N3CC(C)CC3(C)C)n2)cc1OC (stereo not shown) [Compound 1761, N—[[6-(3,4-dimethoxyphenoxy)-2-pyridyl]sulfonyl]-2-(2,2,4-trimethylpyrrolidin-1-yl)pyridine-3-carboxamide]"
2,++ (“++” means between 3 uM and 10 uM),"CC1CN(c2ncccc2C(=O)NS(=O)(=O)c2cccc(OCC3CCCO3)n2)C(C)(C)C1 (stereo not shown) [Compound 1764, N—[[6-(tetrahydrofuran-2-ylmethoxy)-2-pyridyl]sulfonyl]-2-(2,2,4-trimethylpyrrolidin-1-yl)pyridine-3-carboxamide]"
3,+++ (“+++” means <3 uM),"Cc1ccccc1-c1ccc(C(=O)NS(=O)(=O)c2cccnc2N)c(N2C[C@@H](C)CC2(C)C)n1 [Compound 1766, N-[(2-amino-3-pyridyl)sulfonyl]-6-(o-tolyl)-2-[(4S)-2,2,4-trimethylpyrrolidin-1-yl]pyridine-3-carboxamide]"
4,+++ (“+++” means <3 uM),"CC1CN(c2ncccc2C(=O)NS(=O)(=O)c2cccc(OCC3CCCCC3)n2)C(C)(C)C1 (stereo not shown) [Compound 1767, N—[[6-(cyclohexylmethoxy)-2-pyridyl]sulfonyl]-2-(2,2,4-trimethylpyrrolidin-1-yl)pyridine-3-carboxamide]"
5,+++ (“+++” means <3 uM),"CC1CN(c2ncccc2C(=O)NS(=O)(=O)c2cccc(NCc3cc(F)ccc3F)n2)C(C)(C)C1 (stereo not shown) [Compound 1770, N—[[6-[(2,5-difluorophenyl)methylamino]-2-pyridyl]sulfonyl]-2-(2,2,4-trimethylpyrrolidin-1-yl)pyridine-3-carboxamide]"
6,+++ (“+++” means <3 uM),"CC1CN(c2ncccc2C(=O)NS(=O)(=O)c2cccc(Nc3ccc4ncsc4c3)n2)C(C)(C)C1 (stereo not shown) [Compound 1775, N—[[6-(1,3-benzothiazol-6-ylamino)-2-pyridyl]sulfonyl]-2-(2,24-trimethylpyrrolidin-1-yl)pyridine-3-carboxamide]"
7,+++ (“+++” means <3 uM),"CC1CN(c2ncccc2C(=O)NS(=O)(=O)c2cccc(OCc3cc(-c4ccccc4)on3)n2)C(C)(C)C1 (stereo not shown) [Compound 1777, N—[[6-[(5-phenylisoxazol-3-yl)methoxy]-2-pyridyl]sulfonyl]-2-(2,2,4-trimethylpyrrolidin-1-yl)pyridine-3-carboxamide]"
8,+++ (“+++” means <3 uM),"COc1ccc(COc2cccc(S(=O)(=O)NC(=O)c3cccnc3N3CC(C)CC3(C)C)n2)cc1Cl (stereo not shown) [Compound 1778, N—[[6-[(3-chloro-4-methoxy-phenyl)methoxy]-2-pyridyl]sulfonyl]-2-(2,2,4-trimethylpyrrolidin-1-yl)pyridine-3-carboxamide]"
9,+++ (“+++” means <3 uM),"C#Cc1cccc(Oc2cccc(S(=O)(=O)NC(=O)c3cccnc3N3CC(C)CC3(C)C)n2)c1 (stereo not shown) [Compound 1782, N—[[6-(3-ethynylphenoxy)-2-pyridyl]sulfonyl]-2-(2,2,4-trimethylpyrrolidin-1-yl)pyridine-3-carboxamide]"

# More lines, now with the values behind:
row,Structure (SMILES),EC30
1,"Cc1cc2c(cc1-c1cnc(N3CC(C)CC3(C)C)c(C(=O)NS(=O)(=O)c3cccc(N)n3)c1)C(C)(C)CCC2(C)C (stereo not shown) [Compound 1759, N-[(6-amino-2-pyridyl)sulfonyl]-5-(1,1,4,4,7-pentamethyltetralin-6-yl)-2-(2,2,4-trimethylpyrrolidin-1-yl)pyridine-3-carboxamide]",+++ (“+++” means <3 uM)
2,"CC(C)COc1cnn(-c2ccc(C(=O)NS(=O)(=O)c3ccc[nH]c3=O)c(N3C[C@@H](C)CC3(C)C)n2)c1 [Compound 1760, 6-(4-isobutoxypyrazol-1-yl)-N-[(2-oxo-1H-pyridin-3-yl)sulfonyl]-2-[(4S)-2,2,4-trimethylpyrrolidin-1-yl]pyridine-3-carboxamide]",++ (“++” means between 3 uM and 10 uM)
3,"C[C@@H]1CN(c2nc(-c3ccc(OC(F)(F)F)cc3)ccc2C(=O)NS(=O)(=O)N2CC[C@H](N)C2)C(C)(C)C1 [Compound 1763, N-[(3S)-3-aminopyrrolidin-1-yl]sulfonyl-6-[4-(trifluoromethoxy)phenyl]-2-[(4S)-2,2,4-trimethylpyrrolidin-1-yl]pyridine-3-carboxamide]",+++ (“+++” means <3 uM)
4,"C[C@@H]1CN(c2nc(C(C)(C)C)ccc2C(=O)NS(=O)(=O)c2ccc[nH]c2=O)C(C)(C)C1 [Compound 1765, 6-tert-butyl-N-[(2-oxo-1H-pyridin-3-yl)sulfonyl]-2-[(4S)-2,2,4-trimethylpyrrolidin-1-yl]pyridine-3-carboxamide]",+++ (“+++” means <3 uM)
5,"CCOc1cc(C)cc(-c2ccc(C(=O)NS(=O)(=O)c3ccc[nH]c3=O)c(Oc3c(C)cc(C)cc3C)n2)n1 [Compound 1768, 6-(6-ethoxy-4-methyl-2-pyridyl)-N-[(2-oxo-1H-pyridin-3-yl)sulfonyl]-2-(2,4,6-trimethylphenoxy)pyridine-3-carboxamide]",++ (“++” means between 3 uM and 10 uM)
6,"CC(Nc1ncccc1C(=O)NS(=O)(=O)c1cccc(N)n1)c1cccc2ccccc12 (stereo not shown) [Compound 1769, N-[(6-amino-2-pyridyl)sulfonyl]-2-[1-(1-naphthyl)ethylamino]pyridine-3-carboxamide]",++ (“++” means between 3 uM and 10 uM)
7,"Cc1cc(C)cc(-c2ccc(C(=O)NS(=O)(=O)c3cccc(N)n3)c(N3C[C@@H](C)CC3(C)C)n2)c1 [Compound 1771, N-[(6-amino-2-pyridyl)sulfonyl]-6-(3,5-dimethylphenyl)-2-[(4S)-2,2,4-trimethylpyrrolidin-1-yl]pyridine-3-carboxamide]",+++ (“+++” means <3 uM)
8,"Cc1ccccc1C1CCCCCN1c1ncccc1C(=O)NS(=O)(=O)c1cccc(N)n1 (stereo not shown) [Compound 1772, N-[(6-amino-2-pyridyl)sulfonyl]-2-[2-(o-tolyl)azepan-1-yl]pyridine-3-carboxamide]",++ (“++” means between 3 uM and 10 uM)
9,"CC1CN(c2ncccc2C(=O)NS(=O)(=O)c2cccc(N3CCN(C(=O)OC(C)(C)C)CC3)n2)C(C)(C)C1 (stereo not shown) [Compound 1773, tert-butyl 4-[6-[[2-(2,2,4-trimethylpyrrolidin-1-yl)pyridine-3-carbonyl]sulfamoyl]-2-pyridyl]piperazine-1-carboxylate]",+++ (“+++” means <3 uM)
10,"CC(C)Oc1ccc(-c2ccc(C(=O)NS(=O)(=O)c3ccc[nH]c3=O)c(N3C[C@@H](C)CC3(C)C)n2)cc1 [Compound 1774, 6-(4-isopropoxyphenyl)-N-[(2-oxo-1H-pyridin-3-yl)sulfonyl]-2-[(4S)-2,2,4-trimethylpyrrolidin-1-yl]pyridine-3-carboxamide]",+++ (“+++” means <3 uM)
11,"CC1CN(c2ncccc2C(=O)NS(=O)(=O)c2cccc(N3CCCC4CCCCC43)n2)C(C)(C)C1 (stereo not shown) [Compound 1776, N—[[6-(3,4,4a,5,6,7,8,8a-octahydro-2H-quinolin-1-yl)-2-pyridyl]sulfonyl]-2-(2,2,4-trimethylpyrrolidin-1-yl)pyridine-3-carboxamide]",+++ (“+++” means <3 uM)
12,"COc1c(F)cccc1-c1ccc(C(=O)NS(=O)(=O)c2ccc[nH]c2=O)c(N2C[C@@H](C)CC2(C)C)n1 [Compound 1779, 6-(3-fluoro-2-methoxy-phenyl)-N-[(2-oxo-1H-pyridin-3-yl)sulfonyl]-2-[(4S)-2,2,4-trimethylpyrrolidin-1-yl]pyridine-3-carboxamide]",+++ (“+++” means <3 uM)
13,"COc1cc(-c2ccc(C(=O)NS(=O)(=O)c3ccc[nH]c3=O)c(N3C[C@@H](C)CC3(C)C)n2)ccc1F [Compound 1780, 6-(4-fluoro-3-methoxy-phenyl)-N-[(2-oxo-1H-pyridin-3-yl)sulfonyl]-2-[(4S)-2,2,4-trimethylpyrrolidin-1-yl]pyridine-3-carboxamide]",++ (“++” means between 3 uM and 10 uM)
14,"CCOCCOCCOc1ncc(-c2ccc(C(=O)NS(=O)(=O)c3cccnc3N)c(N3C[C@@H](C)CC3(C)C)n2)cc1C [Compound 1783, N-[(2-amino-3-pyridyl)sulfonyl]-6-[6-[2-(2-ethoxyethoxy)ethoxy]-5-methyl-3-pyridyl]-2-[(4S)-2,2,4-trimethylpyrrolidin-1-yl]pyridine-3-carboxamide]",+++ (“+++” means <3 uM)
15,"C[C@@H]1CN(c2nc(-c3ccccc3Cl)ccc2C(=O)NS(=O)(=O)c2ccc[nH]c2=O)C(C)(C)C1 [Compound 1784, 6-(2-chlorophenyl)-N-[(2-oxo-1H-pyridin-3-yl)sulfonyl]-2-[(4S)-2,2,4-trimethylpyrrolidin-1-yl]pyridine-3-carboxamide]",+++ (“+++” means <3 uM)
16,"C[C@@H]1CN(c2nc(-c3ccc(OC(F)(F)F)cc3)ccc2C(=O)NS(=O)(=O)c2cccc(N)n2)C(C)(C)C1 [Compound 1785, N-[(6-amino-2-pyridyl)sulfonyl]-6-[4-(trifluoromethoxy)phenyl]-2-[(4S)-2,2,4-trimethylpyrrolidin-1-yl]pyridine-3-carboxamide]",+++ (“+++” means <3 uM)
17,"COc1cccc(-c2ccc(C(=O)NS(=O)(=O)c3ccc[nH]c3=O)c(N3C[C@@H](C)CC3(C)C)n2)c1OC [Compound 1786, 6-(2,3-dimethoxyphenyl)-N-[(2-oxo-1H-pyridin-3-yl)sulfonyl]-2-[(4S)-2,2,4-trimethylpyrrolidin-1-yl]pyridine-3-carboxamide]",++ (“++” means between 3 uM and 10 uM)
18,"Cc1cc(-c2ccc(C(=O)NS(=O)(=O)c3cccc(N)n3)c(N3C[C@@H](C)CC3(C)C)n2)cnc1OCCOCCOCCOC(C)C [Compound 1787, N-[(6-amino-2-pyridyl)sulfonyl]-6-[6-[2-[2-(2-isopropoxyethoxy)ethoxy]ethoxy]-5-methyl-3-pyridyl]-2-[(4S)-2,2,4-trimethylpyrrolidin-1-yl]pyridine-3-carboxamide]",++ (“++” means between 3 uM and 10 uM)
19,"CC(C)COc1cc(F)cc(-c2ccc(C(=O)NS(=O)(=O)c3cccc(N)n3)c(N3CC(C(F)(F)F)CC3(C)C)n2)c1 (stereo not shown) [Compound 1788, N-[(6-amino-2-pyridyl)sulfonyl]-2-[2,2-dimethyl-4-(trifluoromethyl)pyrrolidin-1-yl]-6-(3-fluoro-5-isobutoxy-phenyl)pyridine-3-carboxamide]",+++ (“+++” means <3 uM)
